Laboratory results published in US9434711B2 (Janssen Pharmaceutica, NV, priority 2007, dated 2016).
Like-named read-outs stand apart in the source and are kept apart here.

Target: canine TRPM8 (Canis lupus familiaris, UniProt Q1A7N1)
Test: In Vitro Canine TRPM8 Functional Assay (Ca2+ fluorescence, icilin activation)
Assay type: cell-based
Details: for inhibition at 0.5 µM / % Inh @ 0.5 (μM): compound at 0.5 μM; for inhibition at 0.5 µM: read-out: % Inh @ 0.5
Method: The functional activity of compounds of the formula (I) was determined by measuring changes in intracellular calcium concentration using a Ca^2+-sensitive fluorescent dye. The changes in fluorescent signal were monitored by a fluorescence plate reader, either a FLIPR™ (Molecular Devices) or FDSS (Hamamatsu).
At 24 hrs prior to assay, HEK293 cells stably expressing canine TRPM8 were seeded in culture medium in black wall, clear-base poly-D-lysine coated 384-well plates (BD Biosciences, NJ, USA) and grown overnight in 5% CO2 at 37° C. On assay day, growth media was removed and cells were loaded with Calcium 3 Dye (Molecular Devices) for 35 min at 37° C., under 5% CO2 and then for 25 min at room temperature and atmosphere. Subsequently, cells were tested for agonist-induced increases in intracellular Ca^2+ levels using FLIPR™ or FDSS. Cells were challenged with a compound of the Formula (I) (at varying concentrations) and intracellular Ca^2+ was measured for 5 min prior to the addition of icilin to all wells to achieve a final concentration that produces approximately an 80% maximal response. EC50 or IC50 values for compounds of the present invention were determined from eight-point dose-response studies. Curves were generated using the average of quadruplicate wells for each data point.

[1] = canine TRPM8, icilin activation
[2] = HEK293 cells stably expressing canine TRPM8, icilin activation, eight-point dose-response, read-out: IC50
[3] = compound at 0.2 μM, canine TRPM8, icilin activation, read-out: % Inh @ 0.2

Chain of canine TRPM8 (Q1A7N1 1-1104): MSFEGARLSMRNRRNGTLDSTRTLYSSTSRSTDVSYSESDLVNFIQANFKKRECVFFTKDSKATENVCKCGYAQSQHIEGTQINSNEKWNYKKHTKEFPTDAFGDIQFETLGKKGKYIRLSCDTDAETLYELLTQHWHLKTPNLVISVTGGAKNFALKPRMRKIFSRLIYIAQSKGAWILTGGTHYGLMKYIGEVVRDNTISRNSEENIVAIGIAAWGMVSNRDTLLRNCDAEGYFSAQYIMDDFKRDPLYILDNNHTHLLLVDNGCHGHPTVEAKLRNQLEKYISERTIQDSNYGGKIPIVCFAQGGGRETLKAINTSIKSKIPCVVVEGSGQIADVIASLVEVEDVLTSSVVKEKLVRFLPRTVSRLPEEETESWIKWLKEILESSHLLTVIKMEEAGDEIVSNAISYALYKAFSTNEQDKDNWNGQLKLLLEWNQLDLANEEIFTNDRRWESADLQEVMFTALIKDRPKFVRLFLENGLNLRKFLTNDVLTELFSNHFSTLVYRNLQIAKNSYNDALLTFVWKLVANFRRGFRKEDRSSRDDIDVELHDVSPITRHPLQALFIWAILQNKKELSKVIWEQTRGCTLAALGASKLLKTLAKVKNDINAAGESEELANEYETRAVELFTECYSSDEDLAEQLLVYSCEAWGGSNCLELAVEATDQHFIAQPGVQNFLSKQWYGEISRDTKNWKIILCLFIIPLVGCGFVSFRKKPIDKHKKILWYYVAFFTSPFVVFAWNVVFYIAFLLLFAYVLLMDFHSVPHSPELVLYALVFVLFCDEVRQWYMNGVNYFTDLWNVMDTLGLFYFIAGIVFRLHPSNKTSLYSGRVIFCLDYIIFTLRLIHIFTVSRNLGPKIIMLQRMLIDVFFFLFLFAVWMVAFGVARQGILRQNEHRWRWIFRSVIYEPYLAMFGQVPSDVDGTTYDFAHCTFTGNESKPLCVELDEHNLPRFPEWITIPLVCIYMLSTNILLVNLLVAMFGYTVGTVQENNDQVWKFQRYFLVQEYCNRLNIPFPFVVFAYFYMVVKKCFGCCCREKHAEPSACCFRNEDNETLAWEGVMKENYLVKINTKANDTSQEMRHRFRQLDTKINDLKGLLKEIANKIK

SMILES	inhibition at 0.5 µM [1] [%]	IC50 [2] [µM]	inhibition at 0.2 µM [3] [%]	further results
O=S(=O)(c1ccccc1)N(Cc1ccncc1)c1cc2ccccc2s1 [Compound 54, N-(Benzo[b]thiophen-2-yl)-N-(pyridin-4-ylmethyl)-benzenesulfonamide]	65			
O=[N+]([O-])c1ccccc1CN(c1cc2ccccc2s1)S(=O)(=O)c1ccccc1 [Compound 55, N-(Benzo[b]thiophen-2-yl)-N-(2-nitro-benzyl)-benzenesulfonamide]	99	0.0655		
O=S(=O)(c1ccccc1)N(Cc1ccccc1OC(F)(F)F)c1cc2ccccc2s1 [Compound 56, N-(Benzo[b]thiophen-2-yl)-N-(2-trifluoromethoxy-benzyl)-benzenesulfonamide]	99	0.103		
O=S(=O)(c1ccccc1)N(Cc1ccc(OC(F)(F)F)cc1)c1cc2ccccc2s1 [Compound 58, N-(Benzo[b]thiophen-2-yl)-N-(4-trifluoromethoxy-benzyl)-benzenesulfonamide]	98	0.0455		
O=S(=O)(c1ccccc1)N(Cc1ccc(F)c(C(F)(F)F)c1)c1cc2ccccc2s1 [Compound 61, N-(Benzo[b]thiophen-2-yl)-N-(4-fluoro-3-trifluoromethyl-benzyl)-benzenesulfonamide]	95	0.0524		
Cc1ccccc1CN(c1cc2ccccc2s1)S(=O)(=O)c1ccccc1 [Compound 62]		0.0581		% Inh @ 0.5 (μM) [1]: 98%
Cc1cccc(CN(c2cc3ccccc3s2)S(=O)(=O)c2ccccc2)c1 [Compound 63]		0.074		% Inh @ 0.5 (μM) [1]: 98%
Cc1c(N(Cc2ccc(F)c(C(F)(F)F)c2)S(=O)(=O)c2ccc3c(c2)NC(=O)CO3)sc2ccccc12 [Compound 67]		0.055		% Inh @ 0.2 (μM) (compound at 0.2 μM, canine TRPM8, icilin activation): 77%
Cc1c(N(Cc2ccc(F)c(C(F)(F)F)c2)S(=O)(=O)c2ccc3c(c2)OCCN3C)sc2ccccc12 [Compound 68, N-(4-Fluoro-3-trifluoromethyl-benzyl)-N-(3-methyl-benzo[b]thiophen-2-yl)-4-methyl-3,4-dihydro-2H-benzo[1,4]oxazine-7-sulfonamide]		0.002	99	
Cc1c(N(Cc2ccc(F)c(C(F)(F)F)c2)S(=O)(=O)c2ccc(-c3csnn3)cc2)sc2ccccc12 [Compound 69, N-(4-Fluoro-3-trifluoromethyl-benzyl)-N-(3-methyl-benzo[b]thiophen-2-yl)-4-[1,2,3]thiadiazol-4-yl-benzenesulfonamide]		0.003	96	
COC(=O)CCS(=O)(=O)N(Cc1ccc(F)c(C(F)(F)F)c1)c1sc2ccccc2c1C [Compound 71]				IC50: 0.018 µM; inhibition at 0.2 µM (read-out: % Inh @ 0.2 (μM)): 98%
Cc1nc(C)c(S(=O)(=O)N(Cc2ccc(F)c(C(F)(F)F)c2)c2sc3ccccc3c2C)s1 [Compound 75, N-(4-Fluoro-3-trifluoromethyl-benzyl)-N-(3-methyl-benzo[b]thiophen-2-yl)-2,4-dimethyl-thiazole-5-sulfonamide]		0.018	98	
O=S(=O)(c1ccsc1)N(Cc1ccc(F)c(C(F)(F)F)c1)c1cc2ccccc2s1 [Compound 78, N-(Benzo[b]thiophen-2-yl)-N-(4-fluoro-3-trifluoromethyl-benzyl)-thiophene-3-sulfonamide]		0.0225	102	
CC(C)(C)OCCN(c1sc2ccccc2c1Cl)S(=O)(=O)c1ccccc1 [Compound 81, N-(2-tert-Butoxy-ethyl)-N-(3-chloro-benzo[b]thiophen-2-yl)-benzenesulfonamide]	99	0.015		
CCCCN(c1sc2ccccc2c1Cl)S(=O)(=O)c1ccccc1 [Compound 83, N-(Butyl)-N-(3-chloro-benzo[b]thiophen-2-yl)-benzenesulfonamide]	101	0.048		
O=S(=O)(c1ccccc1)N(CCc1ccccc1)c1sc2ccccc2c1Cl [Compound 85, N-(3-Chloro-benzo[b]thiophen-2-yl)-N-(phenethyl)-benzenesulfonamide]	100			

Further lines, with some results ahead:

inhibition at 0.5 µM [1] [%]	IC50 [2] [µM]	inhibition at 0.2 µM [3] [%]	SMILES	further results
100	0.108		O=S(=O)(c1ccccc1)N(Cc1cccc(OC(F)(F)F)c1)c1cc2ccccc2s1 [Compound 57, N-(Benzo[b]thiophen-2-yl)-N-(3-trifluoromethoxy-benzyl)-benzenesulfonamide]	
98	0.0445		O=S(=O)(c1ccccc1)N(Cc1ccccc1)c1cc2ccccc2s1 [Compound 59, N-(Benzo[b]thiophen-2-yl)-N-(benzyl)-benzenesulfonamide]	
97	0.0283		COc1cc(CN(c2cc3ccccc3s2)S(=O)(=O)c2ccccc2)ccc1F [Compound 60, N-(Benzo[b]thiophen-2-yl)-N-(4-fluoro-3-methoxy-benzyl)-benzenesulfonamide]	
	0.019	96	COc1ccc(S(=O)(=O)N(Cc2ccc(F)c(C(F)(F)F)c2)c2sc3ccccc3c2C)cc1F [Compound 64, N-(4-Fluoro-3-trifluoromethyl-benzyl)-N-(3-methyl-benzo[b]thiophen-2-yl)-3-fluoro-4-methoxybenzenesulfonamide]	
	0.017	97	Cc1c(N(Cc2ccc(F)c(C(F)(F)F)c2)S(=O)(=O)c2ccc3ncsc3c2)sc2ccccc12 [Compound 65, N-(4-Fluoro-3-trifluoromethyl-benzyl)-N-(3-methyl-benzo[b]thiophen-2-yl)-benzothiazole-6-sulfonamide]	
	0.004	96	Cc1c(N(Cc2ccc(F)c(C(F)(F)F)c2)S(=O)(=O)c2ccc3[nH]c(=O)oc3c2)sc2ccccc12 [Compound 66, N-(4-Fluoro-3-trifluoromethyl-benzyl)-N-(3-methyl-benzo[b]thiophen-2-yl)-2-oxo-2,3-dihydro-benzooxazole-6-sulfonamide]	
	0.007	99	Cc1c(N(Cc2ccc(F)c(C(F)(F)F)c2)S(=O)(=O)c2cccc(Oc3ccccc3)c2)sc2ccccc12 [Compound 70, N-(4-Fluoro-3-trifluoromethyl-benzyl)-N-(3-methyl-benzo[b]thiophen-2-yl)-3-phenoxy-benzenesulfonamide]	
	0.026	99	Cc1nc(O)nc(O)c1S(=O)(=O)N(Cc1ccc(F)c(C(F)(F)F)c1)c1sc2ccccc2c1C [Compound 72, N-(3-Methyl-benzo[b]thiophen-2-yl)-N-(4-fluoro-3-trifluoromethylbenzyl)-(2,4-dihydroxy-6-methyl-pyrimidine-5-yl)sulfonamide]	
		24	Cc1c(N(Cc2ccc(F)c(C(F)(F)F)c2)S(=O)(=O)c2cccc3c2CN(C(=O)C(F)(F)F)CC3)sc2ccccc12 [Compound 73, N-(4-Fluoro-3-trifluoromethyl-benzyl)-N-(3-methyl-benzo[b]thiophen-2-yl)-2-(2,2,2-trifluoro-acetyl)-1,2,3,4-tetrahydro-isoquinoline-8-sulfonamide]	
	0.021	97	Cc1nn(C)c(C)c1S(=O)(=O)N(Cc1ccc(F)c(C(F)(F)F)c1)c1sc2ccccc2c1C [Compound 74, N-(4-Fluoro-3-trifluoromethyl-benzyl)-N-(3-methyl-benzo[b]thiophen-2-yl)-1,3,5-trimethyl-1H-pyrazole-4-sulfonamide]	
	0.021	95	Cc1c(N(Cc2ccc(F)c(C(F)(F)F)c2)S(=O)(=O)c2ccc(Cl)nc2)sc2ccccc12 [Compound 76, N-(4-Fluoro-3-trifluoromethyl-benzyl)-N-(3-methyl-benzo[b]thiophen-2-yl)-6-chloro-pyridine-3-sulfonamide]	
	0.022	97	Cc1c(N(Cc2ccc(F)c(C(F)(F)F)c2)S(=O)(=O)c2cccnc2Cl)sc2ccccc12 [Compound 77, N-(4-Fluoro-3-trifluoromethyl-benzyl)-N-(3-methyl-benzo[b]thiophen-2-yl)-2-chloro-pyridine-3-sulfonamide]	
		69	Cc1c(N(Cc2ccc(F)c(C(F)(F)F)c2)S(=O)(=O)c2cccc3c2CNCC3)sc2ccccc12 [Compound 79, N-(4-Fluoro-3-trifluoromethyl-benzyl)-N-(3-methyl-benzo[b]thiophen-2-yl)-1,2,3,4-tetrahydro-isoquinoline-8-sulfonamide]	
98	0.029		O=S(=O)(c1ccccc1)N(CC1CCCCC1)c1sc2ccccc2c1Cl [Compound 80, N-(3-Chloro-benzo[b]thiophen-2-yl)-N-(cyclohexylmethyl)-benzenesulfonamide]	
87	0.319		O=C1CCCN1CCN(c1sc2ccccc2c1Cl)S(=O)(=O)c1ccccc1 [Compound 82, N-(3-Chloro-benzo[b]thiophen-2-yl)-N-[2-(2-oxo-pyrrolidin-1-yl)-ethyl]-benzenesulfonamide]	
100	0.035		C=CCN(c1sc2ccccc2c1Cl)S(=O)(=O)c1ccccc1 [Compound 84, N-(Allyl)-N-(3-chloro-benzo[b]thiophen-2-yl)-benzenesulfonamide]	
